Data on 59 compounds can be found in patent publication US7897633B2, “Inhibitors of glutaminyl cyclase” (Probiodrug AG, priority 2004, dated 2011).

One data set concerns the target glutaminyl cyclase (QC) (Homo sapiens, UniProt Q16769). Kind of data set: Inhibitor assay for glutaminyl cyclase (QC) activity. As to conditions: for Res. Act. (%): rapid test of QC-inhibition: 4 mM inhibitor, substrate concentration at 1 KM.

Chain of glutaminyl cyclase (QC) (Q16769 29-361): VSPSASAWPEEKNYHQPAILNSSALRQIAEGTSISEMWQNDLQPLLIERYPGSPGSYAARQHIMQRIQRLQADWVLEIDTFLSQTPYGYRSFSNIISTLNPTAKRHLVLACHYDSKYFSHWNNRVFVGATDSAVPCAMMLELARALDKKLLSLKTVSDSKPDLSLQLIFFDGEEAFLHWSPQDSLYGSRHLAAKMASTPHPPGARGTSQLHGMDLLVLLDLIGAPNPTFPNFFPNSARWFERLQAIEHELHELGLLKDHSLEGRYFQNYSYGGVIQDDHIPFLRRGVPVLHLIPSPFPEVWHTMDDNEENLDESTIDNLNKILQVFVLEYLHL
Procedure for glutaminyl cyclase (QC): Excitation/emission wavelengths were 320/410 nm. The assay reactions were initiated by addition of glutaminyl cyclase.
Reactions were carried out at 30° C. utilizing the NOVOStar reader for microplates (BMG labtechnologies). […] Excitation/emission wavelengths were 380/460 nm. The assay reactions were initiated by addition of glutaminyl cyclase. […] The kinetic data were evaluated using GraFit software.
The initial velocities were evaluated and the enzymatic activity was determined from a standard curve of ammonia under assay conditions. All samples were measured at 30° C., using either the [sequence]luor Plus or the Sunrise (both from TECAN) reader for microplates. Kinetic data was evaluated using GraFit software.
For inhibitor testing, the sample composition was the same as described above, except of the putative inhibitory compound added. […] For detailed investigations of the inhibition and determination of Ki-values, influence of the inhibitor on the auxiliary enzymes was investigated first.

The compound `CNC(=S)NCCCn1ccnc1` returned a melting point of 122 to 122.5 °C.

For the compound `COc1ccc(NC(=S)NC[C@H](C)Cn2ccnc2)cc1OC`, the melting point lay within 150.5 to 151.5 °C.

The compound `COc1ccc(NC(=S)NC[C@@H](C)Cn2ccnc2)cc1OC` registered a melting point of 155 to 157.5 °C.

`COc1ccc(NC(=S)NCC2(Cn3ccnc3)CC2)cc1OC` showed a melting point of 166.5 to 168.5 °C.

Compound `C[C@@H](C(=S)NCCCn1ccnc1)c1ccccc1` registered a melting point of 82 to 82.5 °C.

Compound `C[C@H](C(=S)NCCCn1ccnc1)c1ccccc1` yielded a melting point of 82.5 to 83.5 °C.

`COc1ccc(CC(=S)NCCCn2ccnc2)cc1OC` returned a melting point of 148 to 150 °C.

`S=C(NCCCn1ccnc1)C1(c2ccc(Cl)cc2)CCC1` had a melting point of 137.5 to 139 °C.

`S=C(NCCCn1ccnc1)C1(c2ccc(Cl)cc2)CCCC1` displayed a melting point of 140 to 141 °C.

Compound `COc1ccc(C2(C(=S)NCCCn3ccnc3)CCCCC2)cc1` yielded a melting point of 162.5 to 164 °C.

`COc1ccc(C2(C(=S)NCCCn3ccnc3)CC2)cc1` returned a melting point of 129 to 129.5 °C.

With `COc1ccc(NC(=S)CCCCn2ccnc2)cc1OC`, the melting point fell in the range of 128 to 128.5 °C.

As to `COc1ccc(NC(=S)NCCn2ccnc2)cc1OC`, the melting point was in the range of 157.5 to 159 °C.

In turn, `COc1ccc(NC(=S)NCCCCn2ccnc2)cc1OC` gave a melting point of 114.5 to 116 °C.

On to `COc1ccc(NC(=S)NCCCn2ccnc2)c(OC)c1`, for which the melting point was in the range of 120 to 120.5 °C.

In turn, `COc1cc(NC(=S)NCCCn2ccnc2)cc(OC)c1` returned a melting point of 142 to 143 °C.

For `CC(C)(C)NC(=S)NCCCn1ccnc1`, the melting point lay in the range of 147 to 147.5 °C.

For `S=C(NCCCn1ccnc1)Nc1ccc2c(c1)OCCO2`, the melting point was in the range of 103 to 103.5 °C.

As for `S=C(NCCCn1ccnc1)Nc1ccc2c(c1)OCO2`, the melting point lay in the range of 115 to 115.6 °C.

`COc1cc(NC(=S)NCCCn2ccnc2)cc(OC)c1OC` yielded a melting point of 124.5 to 125.5 °C.

Compound `COc1cccc(NC(=S)NCCCn2ccnc2)c1` came in with a melting point of 89.5 to 90 °C.

As for `S=C(NCCCn1ccnc1)NCc1ccccc1`, the melting point lay in the range of 127 to 128 °C.

For the compound `CN(C)c1ccc(NC(=S)NCCCn2ccnc2)cc1`, the melting point lay in the range of 146.5 to 147 °C.

Compound `CCc1ccc(NC(=S)NCCCn2ccnc2)cc1` showed a melting point of 100 to 100.5 °C.

As to `FC(F)(F)c1ccc(NC(=S)NCCCn2ccnc2)cc1` [Example 8, 1-(3-(1H-imidazol-1-yl)propyl)-3-(4-(trifluoromethyl)phenyl)thiourea], the melting point is 154.5 to 155 °C. In addition, at glutaminyl cyclase (QC), the inhibitory constant (Ki) worked out at 3.93 µM and the “Res. Act. (%)” value is on record as 38.5%.

On glutaminyl cyclase (QC), `COC(=O)c1ccc(NC(=S)NCCCn2ccnc2)cc1` [Example 9] registered an inhibition constant (Ki) of 1.19 µM.

In turn, `CC(=O)c1ccc(NC(=S)NCCCn2ccnc2)cc1` [Example 10, 1-(3-(1H-imidazol-1-yl)propyl)-3-(4-acetylphenyl)thiourea] showed a melting point of 170 to 171 °C. In addition, on glutaminyl cyclase (QC), affinity was put at a Ki of 1.7 µM and the “Res. Act. (%)” value was 17.0%.

As for `COc1ccc(NC(=S)NCCCn2ccnc2)cc1` [Example 11, 1-(3-(1H-imidazol-1-yl)propyl)-3-(4-methoxyphenyl)thiourea], on glutaminyl cyclase (QC), the “Res. Act. (%)” value was 9.7%.

Take `S=C(NCCCn1ccnc1)Nc1ccc(-c2cnco2)cc1` [Example 17]: at glutaminyl cyclase (QC), the affinity corresponds to a Ki of 0.86 µM and the “Res. Act. (%)” value came to 3.64%.

As to `O=S(=O)(c1ccc(NC(=S)NCCCn2ccnc2)cc1)N1CCCCC1` [Example 20], at glutaminyl cyclase (QC), affinity was put at a Ki of 2.27 µM and the “Res. Act. (%)” value came to 8.5%.

Take `N#Cc1ccc(NC(=S)NCCCn2ccnc2)cc1` [Example 22]: on glutaminyl cyclase (QC), the Ki was 2.89 µM and the “Res. Act. (%)” value is on record as 9.0%.

In the case of `CCOc1ccc(NC(=S)NCCCn2ccnc2)cc1` [Example 27, 1-(3-(1H-imidazol-1-yl)propyl)-3-(4-ethoxyphenyl)thiourea], the “Res. Act. (%)” value at glutaminyl cyclase (QC) worked out at 7.2%.

As for `COc1ccc(CNC(=S)NCCCn2ccnc2)cc1` [Example 29], the inhibition constant Ki at glutaminyl cyclase (QC) was 3.93 µM.

In the case of `CSc1ccc(NC(=S)NCCCn2ccnc2)cc1` [Example 33, 1-(3-(1H-imidazol-1-yl)propyl)-3-(4-(methylthio)phenyl)thiourea], the melting point lay in the range of 140 to 140.5 °C.

For the compound `S=C(NCCCn1ccnc1)Nc1ccc(I)cc1` [Example 38], at glutaminyl cyclase (QC), the Ki was found to be 2.12 µM and the “Res. Act. (%)” value was 23.5%.

On glutaminyl cyclase (QC), `S=C(NCCCn1ccnc1)Nc1ccc(Br)cc1` [Example 39] came in with an inhibition constant Ki of 2.52 µM.

As to `CCCCNC(=S)NCCCn1ccnc1` [Example 43], at glutaminyl cyclase (QC), inhibition was half-maximal at 14 µM (IC50) and the “Res. Act. (%)” value was 53.8%.

Turning to `S=C(NCCCn1ccnc1)NC1CCCCCCC1` [Example 44], on glutaminyl cyclase (QC), 9.1 µM corresponded to half-maximal inhibition (IC50) and the “Res. Act. (%)” value is listed as 33.1%.

Consider `S=C(NCCCn1ccnc1)NCc1ccco1` [Example 45], for which, at glutaminyl cyclase (QC), the 50% inhibitory concentration (IC50) came to 10 µM and the “Res. Act. (%)” value was found to be 61.4%.

For `S=C(NCCCn1ccnc1)NCC1CCCO1` (centres unmarked) [Example 46], at glutaminyl cyclase (QC), half-maximal inhibition (IC50) was put at 12.8 µM and the “Res. Act. (%)” value came out at 46.0%.

Turning to `S=C(NCCCn1ccnc1)NCc1ccc2c(c1)OCO2` [Example 47], the “Res. Act. (%)” value at glutaminyl cyclase (QC) was found to be 42.7%.

For `S=C(NCCCn1ccnc1)NCCN1CCOCC1` [Example 48], on glutaminyl cyclase (QC), the concentration for half-maximal inhibition (IC50) amounted to 13.3 µM and the “Res. Act. (%)” value is reported as 55.0%.

Compound `COc1cc(NC(=NC#N)NCCCn2ccnc2)cc(OC)c1` [Example 57] came in with a Ki at glutaminyl cyclase (QC) of 0.91 µM.

On to `N#CN=C(NCCCn1ccnc1)Nc1ccc2c(c1)OCO2` [Example 59], for which the inhibitory constant (Ki) at glutaminyl cyclase (QC) was determined as 0.73 µM.

As for `COc1cc(NC(=NC#N)NCCCn2ccnc2)cc(OC)c1OC` [Example 60], the affinity on glutaminyl cyclase (QC), expressed as Ki, was 0.88 µM.

`N#CN=C(NCCCn1ccnc1)NCc1ccccc1` [Example 68]: on glutaminyl cyclase (QC), the affinity, expressed as Ki, was 8.17 µM and the “Res. Act. (%)” value turned out to be 22.5%.

Regarding `Cc1ccc(NC(=NC#N)NCCCn2ccnc2)cc1` [Example 75], at glutaminyl cyclase (QC), the Ki stood at 1.34 µM.

Take `COc1ccc(NC(=N)NCCCn2ccnc2)cc1OC` [Example 92]: the Ki on glutaminyl cyclase (QC) came out at 204 µM.

`CN=C(NCCCn1ccnc1)Nc1ccc(OC)c(OC)c1` [Example 93] came in with a Ki on glutaminyl cyclase (QC) of 3.62 µM.

The compound `CCNC(=O)NCCCn1ccnc1` [Example 96] displayed a Ki on glutaminyl cyclase (QC) of 19.2 µM.

On to `O=C(NCCCn1ccnc1)Nc1cc(F)cc2c1OCOC2` [Example 97], for which, at glutaminyl cyclase (QC), the 50% inhibitory concentration (IC50) was determined as 12 µM and the “Res. Act. (%)” value stood at 19.0%.

Consider `COc1ccc(NC(=O)NCCCn2ccnc2)cc1OC1CCCC1` [Example 98], for which, on glutaminyl cyclase (QC), the Ki is 0.62 µM and the “Res. Act. (%)” value turned out to be 2.87%.

On to `CCCCCCCOc1ccc(NC(=O)NCCCn2ccnc2)cc1` [Example 99], for which, on glutaminyl cyclase (QC), the IC50 was 9.9 µM and the “Res. Act. (%)” value is given as 5.6%.

Consider `COc1ccc(NC(=S)NCc2ccccc2Cn2ccnc2)cc1OC` [Example 103], for which, on glutaminyl cyclase (QC), the Ki was 4.84 µM and the “Res. Act. (%)” value stood at 16.27%.

With `COc1ccc(NC(=S)NCc2cccc(Cn3ccnc3)c2)cc1OC` [Example 104], the inhibitory constant (Ki) on glutaminyl cyclase (QC) was determined as 3.52 µM.

For `COc1ccc(NC(=S)NCc2ccc(Cn3ccnc3)cc2)cc1OC` [Example 105], affinity on glutaminyl cyclase (QC) was put at a Ki of 1.86 µM.

Compound `S=C(Cc1ccccc1)NCCCn1ccnc1` [Example 113] gave a Ki at glutaminyl cyclase (QC) of 4.62 µM. Compared with the last compound, the Ki is about 2.5-fold higher.

At glutaminyl cyclase (QC), `S=C(Cc1cccs1)NCCCn1ccnc1` [Example 114] registered an inhibition constant (Ki) of 3.29 µM.

In the case of `CCC(C(=S)NCCCn1ccnc1)c1ccccc1` (centres unmarked) [Example 117], on glutaminyl cyclase (QC), the Ki was 3.57 µM.
